Source: ChEMBL document CHEMBL6087405, “Discovery and optimization of anthraquinone derivatives containing substituted bisbenzyloxy groups as a novel scaffold damaged endoplasmic reticulum and against hepatocellular carcinoma cells” (Bioorg Med Chem, 2024)
pIC50: −log10 of the molar value. Where a name gives a salt, the structure may show the parent alone. Peptide text beside a SMILES is read from it. * marks the point of attachment. Cbz = O=C(OCc1ccccc1)*

How the values were obtained:
MDA-MB-231 = experiment: Antiproliferative activity against human MDA-MB-231 cells measured after 48 hrs by MTT assay; format: functional, cell-based; conditions: MDA-MB-231, 48 h
Huh-7 [1] = experiment: Antiproliferative activity against human Huh-7 cells measured after 48 hrs by MTT assay; format: functional, cell-based; conditions: Huh-7, 48 h
A549 = experiment: Antiproliferative activity against human A549 cells measured after 48 hrs by MTT assay; format: functional, cell-based; conditions: A549, 48 h
Huh-7 [2] = experiment: Induction of apoptosis in human Huh-7 cells assessed as viable cells at 20 uM measured after 48 hrs by Annexin V-PE staining based flow cytometry analysis (reference value: 93.69%); format: functional; conditions: read-out: Activity
Huh-7 [3] = experiment: Induction of apoptosis in human Huh-7 cells assessed as early apoptotic cells at 20 uM measured after 48 hrs by Annexin V-PE staining based flow cytometry analysis (reference value: 0.88%); format: functional
Huh-7 [4] = experiment: Induction of apoptosis in human Huh-7 cells assessed as late apoptotic cells at 20 uM measured after 48 hrs by Annexin V-PE staining based flow cytometry analysis (reference value: 2.06%); format: functional
Huh-7 [5] = experiment: Induction of apoptosis in human Huh-7 cells assessed as necrotic cells at 20 uM measured after 48 hrs by Annexin V-PE staining based flow cytometry analysis (reference value: 3.37%); format: functional

pIC50 (MDA-MB-231)	pIC50 (Huh-7 [1])	pIC50 (A549)	SMILES	viability at 20 µM (Huh-7 [2])	Activity (Huh-7 [3])	Activity (Huh-7 [4])	Activity (Huh-7 [5])
5.55	5.38	5.30	COc1ccc(COc2cccc3c2C(=O)c2c(OCc4ccc(OC)cc4)cc(C(=O)NCCCCCO)cc2C3=O)cc1	–	–	–	–
5.24	4.44	< 4.00	O=C(NCCCCCCO)c1cc(OCc2ccc(Cl)cc2)c2c(c1)C(=O)c1cccc(OCc3ccc(Cl)cc3)c1C2=O	–	–	–	–
< 4.00	< 4.00	< 4.00	O=C(O)c1cc(O)c2c(c1)C(=O)c1cccc(O)c1C2=O [RHEIN]	–	–	–	–
6.07	6.47	5.30	COc1ccc(COc2cccc3c2C(=O)c2c(OCc4ccc(OC)cc4)cc(C(=O)NCCCCO)cc2C3=O)cc1	–	–	–	–
5.50	–	–	COc1cccc2c1C(=O)c1c(O)c3c(c(O)c1C2=O)C[C@@](O)(C(=O)CO)C[C@@H]3O[C@H]1C[C@H](N)[C@H](O)[C@H](C)O1 [DOXORUBICIN HYDROCHLORIDE]	–	–	–	–
5.55	5.05	4.20	O=C(NCCCCCCO)c1cc(OCc2ccccc2)c2c(c1)C(=O)c1cccc(OCc3ccccc3)c1C2=O	–	–	–	–
6.01	5.95	5.46	COc1ccc(COc2cccc3c2C(=O)c2c(OCc4ccc(OC)cc4)cc(C(=O)NCCCCCCO)cc2C3=O)cc1	–	–	–	–
5.89	5.70	5.47	Cc1ccc(COc2cccc3c2C(=O)c2c(OCc4ccc(C)cc4)cc(C(=O)NCCCCO)cc2C3=O)cc1	–	–	–	–
5.61	5.29	4.91	Cc1ccc(COc2cccc3c2C(=O)c2c(OCc4ccc(C)cc4)cc(C(=O)NCCCCCO)cc2C3=O)cc1	–	–	–	–
4.76	4.68	< 4.00	O=C(NCCCCO)c1cc(OCc2ccc(Cl)cc2)c2c(c1)C(=O)c1cccc(OCc3ccc(Cl)cc3)c1C2=O	–	–	–	–
3.95	4.19	< 4.00	O=C(NCCOCCO)c1cc(OCc2ccccc2)c2c(c1)C(=O)c1cccc(OCc3ccccc3)c1C2=O	–	–	–	–
5.55	5.36	4.88	Cc1ccc(COc2cccc3c2C(=O)c2c(OCc4ccc(C)cc4)cc(C(=O)NCCO)cc2C3=O)cc1	–	–	–	–
5.20	5.23	< 4.00	O=C(NCCCO)c1cc(OCc2ccc(Cl)cc2)c2c(c1)C(=O)c1cccc(OCc3ccc(Cl)cc3)c1C2=O	–	–	–	–
5.46	5.32	4.68	O=C(NCCO)c1cc(OCc2ccc(Cl)cc2)c2c(c1)C(=O)c1cccc(OCc3ccc(Cl)cc3)c1C2=O	–	–	–	–
–	–	–	CC(C)[C@H](NC(=O)OCc1ccccc1)C(=O)N[C@@H](C)C(=O)N[C@@H](CC(=O)O)C(=O)O (Cbz-Val-Ala-Asp-OH)	91.1%	0.72%	2.37%	5.83%
5.90	5.70	5.25	O=C(NCCNCCO)c1cc(OCc2ccccc2)c2c(c1)C(=O)c1cccc(OCc3ccccc3)c1C2=O	–	–	–	–
5.15	4.30	< 4.00	O=C(NCCOCCO)c1cc(OCc2ccc(Cl)cc2)c2c(c1)C(=O)c1cccc(OCc3ccc(Cl)cc3)c1C2=O	–	–	–	–
5.65	4.39	< 4.00	O=C(NCCNCCO)c1cc(OCc2ccc(Cl)cc2)c2c(c1)C(=O)c1cccc(OCc3ccc(Cl)cc3)c1C2=O	–	–	–	–
5.94	5.43	5.24	Cc1ccc(COc2cccc3c2C(=O)c2c(OCc4ccc(C)cc4)cc(C(=O)NCCCO)cc2C3=O)cc1	–	–	–	–
4.80	4.29	< 4.00	O=C(NCCCCCO)c1cc(OCc2ccc(Cl)cc2)c2c(c1)C(=O)c1cccc(OCc3ccc(Cl)cc3)c1C2=O	–	–	–	–
4.73	5.03	4.77	COc1ccc(COc2cccc3c2C(=O)c2c(OCc4ccc(OC)cc4)cc(C(=O)NCCOCCO)cc2C3=O)cc1	–	–	–	–
5.63	5.32	5.11	Cc1ccc(COc2cccc3c2C(=O)c2c(OCc4ccc(C)cc4)cc(C(=O)NCCCCCCO)cc2C3=O)cc1	–	–	–	–
5.71	5.77	5.45	COc1ccc(COc2cccc3c2C(=O)c2c(OCc4ccc(OC)cc4)cc(C(=O)NCCCO)cc2C3=O)cc1	–	–	–	–
5.21	4.83	< 4.00	Cc1ccc(COc2cccc3c2C(=O)c2c(OCc4ccc(C)cc4)cc(C(=O)NCCOCCO)cc2C3=O)cc1	–	–	–	–
–	5.19	–	CNC(=O)c1cc(Oc2ccc(NC(=O)Nc3ccc(Cl)c(C(F)(F)F)c3)cc2)ccn1 [SORAFENIB]	–	–	–	–
5.61	5.57	5.33	COc1ccc(COc2cccc3c2C(=O)c2c(OCc4ccc(OC)cc4)cc(C(=O)NCCO)cc2C3=O)cc1	–	–	–	–
6.04	5.71	5.32	Cc1ccc(COc2cccc3c2C(=O)c2c(OCc4ccc(C)cc4)cc(C(=O)NCCNCCO)cc2C3=O)cc1	–	–	–	–
